The source of these data is ChEMBL document CHEMBL1268882, “Synthesis and biological evaluation of novel triptolide analogues for anticancer activity” (Bioorg Med Chem Lett, 2010).

Structures are written as SMILES.

One experiment deals with PC-3. The experiment can be described thus: Antiproliferative activity against human PC3 cells after 72 hrs by SRB assay. The experiment is classed as functional, cell-based. Particulars: PC-3, 72 h. (In general: Sulforhodamine B stains cellular protein and so reports cell mass.)
The next experiment has as its system SK-OV-3. Nature of the experiment: Antiproliferative activity against human SKOV3 cells after 72 hrs by SRB assay. The experiment is classed as functional, cell-based. Particulars: SK-OV-3, 72 h.

A word on the IC50: it is the concentration needed to halve the response being measured. Read a low IC50 as inhibition by little substance. For the compound `CC(C)[C@@]12O[C@@H]1C=C1[C@]3(O[C@@H]3C[C@@H]3C4=C(CC[C@]13C)C(=O)OC4)[C@@H]2O`, the IC50 with PC-3 was over 100 µM; in the experiment with SK-OV-3 it was 56000 nM.

Regarding `CC(C)[C@]12O[C@H]1C=C1[C@]3(O[C@H]3C[C@@H]3C4=C(CC[C@]13C)C(=O)OC4)C2=O`, the half-maximal inhibitory concentration (IC50) in the experiment on PC-3 came out at 29 µM; in the experiment on SK-OV-3 it was 66000 nM.

`CC(C)[C@@]12O[C@@H]1C=C1[C@]3(O[C@H]3C[C@@H]3C4=C(CC[C@]13C)C(=O)OC4)C2=O`: the figures for the half-inhibitory concentration (IC50) with PC-3 and in the experiment on SK-OV-3 were over 100 µM and 95000 nM, respectively.

`CC(C)[C@]12O[C@H]1C=C1[C@]3(O[C@H]3C[C@H]3C4=C(CC[C@]13C)C(=O)OC4)C2=O`: the half-maximal inhibitory concentration (IC50) with PC-3 came out at 2.7 µM; with SK-OV-3, 3 nM.

In the case of `CC(C)[C@]12O[C@H]1[C@H](O)[C@@]1(O)[C@@]3(C)CCC4=C(COC4=O)[C@@H]3C[C@@H]3O[C@@]31C2=O`, the IC50 in the experiment on PC-3 was over 100 µM; with SK-OV-3, over 100000 nM.

For `CC(C)[C@@]12O[C@@H]1[C@H]1O[C@]13[C@@]1(C)CCC4=C(COC4=O)[C@H]1C[C@@H]1O[C@@]13C2=O`, the IC50 was over 100 µM in the experiment with PC-3 and over 100000 nM in the experiment with SK-OV-3.

Turning to `CC(C)[C@]12O[C@H]1C=C1[C@]3(O[C@H]3C[C@H]3C4=C(CC[C@]13C)C(=O)OC4)[C@@H]2O`, the half-maximal inhibitory concentration (IC50) in the experiment on PC-3 amounted to 0.01 µM; in the experiment with SK-OV-3, 0.05 nM.

For `CC(C)[C@]12O[C@H]1C=C1[C@]3(O[C@H]3C[C@@H]3C4=C(CC[C@]13C)C(=O)OC4)[C@@H]2O`, the IC50 with PC-3 is over 100 µM; with SK-OV-3, over 100000 nM.

Regarding `CC(C)[C@]12O[C@H]1[C@@H]1O[C@@]13[C@@]1(C)CCC4=C(CNC4=O)[C@@H]1C[C@@H]1O[C@@]13C2=O`, the 50% inhibitory concentration (IC50) with PC-3 turned out to be 14 µM; in the experiment on SK-OV-3, 20 nM.

For `CC(C)[C@]12O[C@H]1[C@H]1O[C@]13[C@@]1(C)CCC4=C(COC4=O)[C@H]1C[C@@H]1O[C@@]13C2=O`, the IC50 is over 100 µM with PC-3 and over 100000 nM in the experiment with SK-OV-3.

In the case of `CC(C)[C@]12O[C@H]1C=C1[C@]3(O[C@H]3C[C@H]3C4=C(CC[C@]13C)C(=O)OC4)[C@H]2O`, the concentration for half-maximal inhibition (IC50) is 29 µM in the experiment on PC-3 and 500 nM in the experiment on SK-OV-3.

As to `CC(C)[C@]12O[C@H]1C=C1[C@]3(O[C@H]3C[C@H]3C4=C(CC[C@]13C)C(=O)NC4)C2=O`, the figures for the IC50 with PC-3 and in the experiment with SK-OV-3 were 0.9 µM and 20 nM, respectively.

Take `CC(C)[C@]12O[C@H]1[C@H]1O[C@]13[C@@]1(C)CCC4=C(COC4=O)[C@H]1C[C@H]1O[C@@]13C2=O`: the half-maximal inhibitory concentration (IC50) is over 100 µM in the experiment with PC-3 and 4600 nM with SK-OV-3.

`CC(C)[C@]12O[C@H]1[C@@H]1O[C@@]13[C@@]1(C)CCC4=C(COC4=O)[C@@H]1C[C@@H]1O[C@@]13C2=O` [TRIPTONIDE]: the results for the IC50 with PC-3 and in the experiment on SK-OV-3 were 0.6 µM and 8 nM, respectively.

In the experiment on SK-OV-3, `CC(C)[C@]12O[C@H]1[C@@H]1O[C@]13[C@]1(O[C@H]1C[C@H]1C4=C(CC[C@@]13C)C(=O)OC4)[C@@H]2O` [TRIPTOLIDE] showed a 50% inhibitory concentration (IC50) of 6 nM.
